Laboratory results reported in US20210379112A1, “STEM CELL THERAPY” (PLASTICELL LIMITED, priority 2018, published 2021).

Legend:
UCB derived CD133+ cells = assay: Ex vivo expansion of umbilical cord blood CD133+ cells (flow cytometry, counting beads); assay type: cell-based, human; conditions: for fold expansion of total nucleated cells (TNC) compared to cells grown in basal media / fold expansion of HSC compared to cells grown in basal media / fold expansion of HSC (Lin−, CD38−, CD34+, CD45RA−, CD133+, CD90+, CD49f+) above basal media containing cytokines: UCB cells; for fold expansion of total nucleated cells (TNC) compared to cells grown in basal media: 5 days culture, vs basal media with cytokines, WR1065 added 16-20 h before harvest; for fold expansion of HSC compared to cells grown in basal media / fold expansion of HSC (Lin−, CD38−, CD34+, CD45RA−, CD133+, CD90+, CD49f+) above basal media containing cytokines: 5 days; for fold expansion of HSC compared to cells grown in basal media: result in words, FIG. 7-12; for fold expansion of HSC (Lin−, CD38−, CD34+, CD45RA−, CD133+, CD90+, CD49f+) above basal media containing cytokines: scriptaid 1 μM, WR1065 100 μM, FIG. 3
From the text: Human UCB units were collected with written informed pre-consent and ethical approval from Oxford and Berkshire National Research Ethical Committees and studies conducted with approval of the NHSBT research committee. UCB mononuclear cells (MNC) were isolated by density gradient centrifugation on lymphocyte separation medium 1077 (PAA Laboratories, Pasching, Austria; density<1.077 g/ml). CD133+ cells were isolated from the MNC with immunomagnetic beads (Miltenyi Biotec, Germany). After isolation, the cells were cryopreserved in 10% DMSO in FCS (fetal calf serum) and stored at −150° C. in aliquots of 1×10^5 cells/vial. Cells were analysed for the purity of the isolation with flow cytometry on a BD LSR II (BD Biosciences, CA) using CD34-APC, CD133-PE and the appropriate isotype controls (all Miltenyi Biotec). Bone marrow derived CD133+ cells were obtained commercially from Lonza and peripheral blood CD133+ cells were isolated using immunomagnetic beads as above from total peripheral blood mononuclear cells obtained commercially from Lonza Biologies.
Vials from 2 or 3 donors were thawed and pooled in StemSpan ACF media (Stem Cell Technologies) containing 100 ng/mL SCF, 100 ng/mL FLT3LG and 20 ng/mL TPO (all from Miltenyi Biotec). After counting, cells were plated in 96 well round bottom suspension plates at 20,000 cells/well in the above media. Cells were allowed to recover overnight in these conditions in a 37° C. humidified incubator with 5% CO2.
The next day cells were harvested from the plates counted, and seeded into 24 well Nanex plates (Compass Biomedical) or standard tissue culture treated plates at 2500 cells/well in 1 mL basal media (StemSpan ACF with 100 ng/mL SCF, 100 ng/mL FLT3LG and 20 ng/mL TPO) containing an HDAC inhibitor (for most experiments scriptaid was used at a concentration of 1 μM). An aliquot of cells was used for CFU analysis and another for flow cytometry analysis.
After 3 days in culture the media was either replaced or supplemented with fresh media with the cytokines (SCF, TPO and FLT3LG) and the HDAC inhibitors (scriptaid 1 μM). Sixteen to twenty hours prior to harvest WR1065 was added at a concentration of 100 μM. After total of 5 days in expansion, cells are harvested, counted and analysed by flow cytometry.
Cells were harvested, washed and stained in 3% FBS in PBS using a panel of pre-conjugated antibodies. Cells were incubated with antibodies on ice for 30 min, then washed twice in 3% FBS in PBS and resuspended in 250 uL of above buffer before being analysed using a BD Canto II flow cytometer. [Antibody panel was as follows: 5 Lin custom cocktail (CD235a, CD4, CD10, CD11b and CD19) APC-Vio770, CD38-PE-Vio770, CD34-PerCP-Vio700, CD133-PE, CD45RA-VioBlue, CD49f-FITC, CD90-APC (all from Miltenyi Biotec).]
Cell number was measured using flow cytometry with the aid of counting beads (CountBright beads Life Technologies).

[1] = test system: bone marrow derived CD34+ cells; conditions: pre-treatment of bone marrow derived CD34+ cells, in vitro; background; cited from earlier work
irradiated NSG mice = assay: Repopulation capacity of expanded cord blood cells in immuno-compromised NSG mice (secondary recipients); conditions: secondary recipient mice, bled at week 8; mice received cord blood cells expanded ex vivo with the substance; FIG. 15
Experimental: The effect of different ex vivo expansion protocols on the ability of the cells to repopulate bone marrow in vivo was investigated. Cells were obtained from cord blood and four cell preparations were produced—1. Unexpanded cells, 2. Cells expanded in the presence of vehicle, 3. Cells expanded in the presence of scriptaid (expanded+SS—FIG. 15), 4. Cells expanded in the presence of scriptaid and WR1065 (expanded+SW—FIG. 15). These cell preparations were then injected into irradiated adult (<8 weeks) male NSG (NOD.Cg-Prkdc^scid II2rcf^Im1Wjl/SzJ) mice. Flow cytometry analysis was performed on blood samples taken at week 15 (CD45^hu & CD45^mu only) to identify animals with evidence of clear engraftment (human CD45+ cells in the blood at week 12, and week 15 human CD45+ count above 1%). Ten of the animals with human CD45+ count above 1%, were used as donors for 10 secondary recipients in one to one manner. At week 20 after cell administration the primary animals were sacrificed. Bone marrow samples were harvested from femurs and tibias and the cells were washed before being counted. 50% of the recovered cells were injected into secondary irradiated animals. In this manner the long term engraftment capabilities of the expanded cells could be determined. The secondary animals were bled at week 8 and whole blood samples analysed by FACs for evidence of engraftment. […]

[2] = UCB cells from three separate donors and a pooled sample, FIG. 13

SMILES	fold expansion of total nucleated cells (TNC) compared to cells grown in basal media (UCB derived CD133+ cells)	fold expansion of HSC compared to cells grown in basal media (UCB derived CD133+ cells)	fold expansion of HSC (Lin−, CD38−, CD34+, CD45RA−, CD133+, CD90+, CD49f+) above basal media containing cytokines (UCB derived CD133+ cells)	other results
Cc1cc(C)cc(C(=O)NOCCCCCC(=O)NO)c1 [LMK235]	slightly lower	significantly increased	–	–
Nc1cc(F)ccc1NC(=O)/C=C/c1cnn(C/C=C/c2ccccc2)c1 [RGFP966]	increase	similar	–	–
CN1CCc2c(c3ccccc3n2Cc2ccc(C(=O)NO)cc2)C1 [Tubastatin A]	similar	significantly increased	–	–
NCCCNCCS [WR1065]	–	–	around 3 fold	enhancement of formation of CFU-GEMM and BFU-E colonies [1]: ≤ 38 fold
Cn1cc(CNCC2CCN(c3ncc(C(=O)NO)cn3)CC2)c2ccccc21 [quisinostat]	slightly lower	significantly increased	–	–
O=C(CCCCCN1C(=O)c2cccc3cccc(c23)C1=O)NO [scriptaid]	slightly reduced	–	approximately 10 fold	fold expansion of HSC compared to cells cultured in basal media on different culture surfaces (UCB derived CD133+ cells; Nanex scaffolds, TC treated Corning 24 well plates, suspension Greiner Bio 24 well plates, effect similar across surfaces, FIG. 14): significantly increased; fold expansion of HSC compared to cells cultured on basal media, average (UCB derived CD133+ cells; [2]): 30 fold; fold expansion of HSC compared to cells cultured on basal media, range (UCB derived CD133+ cells; [2]): 10-55 fold; proportion of CD133+/CD34+ cells compared to cells grown on cytokines alone (UCB derived CD133+ cells; after 5 days in culture): increase; average frequency of human CD45+ cells in whole blood, percentage of viable singlets (irradiated NSG mice): 0.04%
